We go through 2 compounds from patent US20260083767A1, “SOLID DOSAGE FORM OF A SMALL MOLECULE ANTIVIRAL AND USES THEREOF” (Merck Sharp & Dohme LLC, priority 2022, published 2026).

Read-outs that look alike come from different tables or passages of the source.

The conditions of series [1]: non-human primates; cited from earlier work.
Series [2] is described as follows: Aqueous solubility and wettability of Compound A. The series is classed as physicochemical. The source says: As the levels of Compound A increases in the formulation, the flow properties of the pre-roller compaction powder blend worsens due to the cohesive nature of the material. […] As the levels of Compound A increases in the formulation, the property of the powder blend is dominated by the properties of Compound A, resulting in poor wettability, dispersibility and uniformity in water. Accordingly, the proportion of Compound A in the formulations having desirable properties is limited.

For series [3] the following is noted: species not stated; cited from earlier work.

Take `O=c1nc(NO)ccn1[C@@H]1O[C@H](CO)[C@@H](O)[C@H]1O` [NHC, 1-((2R,3R,4S,5R)-3,4-dihydroxy-5-(hydroxymethyl)tetrahydrofuran-2-yl)-4-(hydroxyamino)pyrimidin-2 (1H)-one]: in series [1], the oral bioavailability result was “limited”.
As to `CC(C)C(=O)OC[C@H]1O[C@@H](n2ccc(NO)nc2=O)[C@H](O)[C@@H]1O` [Compound A, {(2R,3S,4R,5R)-3,4-dihydroxy-5-[4-(hydroxyimino)-2-oxo-3,4-dihydropyrimidin-1 (2H)-yl]oxolan-2-yl}methyl 2-methylpropanoate], the aqueous solubility entry in series [2] was “good”. Further, in series [2] (aqueous media), the “wettability in aqueous media” value is on record as “poor”. Further, the oral bioavailability result in series [3] was “orally bioavailable”.
